In patent US20250084061A1, “SULFONYL FUNCTIONAL COMPOUND, METHODS AND USES THEREOF” (Hubei Biopesticide Engineering Research Centre, priority 2023, published 2025):

Key:
Assay type in all cases: in vivo
[1] = test system: Heliothis armigera; assay: Insecticidal activity, artificial feed surface coating method; settings: for mortality at 125 µg/mL / mortality at 250 µg/mL / mortality at 500 µg/mL: Helicoverpa armigera, read-out: Insecticidal activity (mortality rate grade) Heliothis armigera
Experimental: (§1) The insecticidal activity of sulfonyl functional compounds in the above embodiments were tested for agricultural biological functions, and the targets of insecticidal activity were Heliothis armigera, Plutella xylostella and Aphiscraccivora.
(§2) Using Heliothis armigera and Plutella xylostella as target, the insecticidal activities of sulfonyl functional compounds were tested by conventional artificial feed surface coating method. 300 microliters of artificial feed and 20 microliters of test solution were added to each well of the 24-well cell culture plate. The test solution was used in different concentrations and repeated twice (Rep1 and Rep2). The concentrations of the test solution were 500 mg/L, 250 mg/L and 125 mg/L, respectively.
(§3) The insecticidal activity of sulfonyl functional compounds against Aphiscraccivora was tested by the method of dipping. Mother liquors were prepared by the sulfonyl functional compounds provided in the above embodiments dissolved in ethanol, respectively. 500 mg/L, 250 mg/L or 125 mg/L test solution could be prepared by diluting the different mother liquors with a liquor that contained 0.1 mL/L of emulgator (Tween-80). Every test solution was tested twice (Rep1 and Rep2). A blank control was set up, and the activity results were compared with the blank control. The mortality rate of 0˜30%, 30˜50%, 50-70%, 70˜90%, or 90˜100% could be orderly set as 0, 3, 5, 7, or 9.

[2] = test system: Plutella xylostella; assay: as above; settings: for mortality at 125 µg/mL / mortality at 250 µg/mL / mortality at 500 µg/mL: Plutella xylostella, read-out: Insecticidal activity (mortality rate grade) Plutella xylostella
Experimental: as §1, §2, §3

[3] = test system: Aphiscraccivora; assay: Insecticidal activity, dipping method
Experimental: as §1, §3

SMILES | mortality at 125 µg/mL ([1]; 125 mg/L test solution) [%] | mortality at 250 µg/mL ([1]; 250 mg/L test solution) [%] | mortality at 500 µg/mL ([1]; 500 mg/L test solution) [%] | mortality at 125 µg/mL ([2]; 125 mg/L test solution) [%] | mortality at 250 µg/mL ([2]; 250 mg/L test solution) [%] | mortality at 500 µg/mL ([2]; 500 mg/L test solution) [%] | Insecticidal activity (mortality rate grade) Aphiscraccivora ([3]; 125 mg/L test solution) | Insecticidal activity (mortality rate grade) Aphiscraccivora ([3]; 250 mg/L test solution) | Insecticidal activity (mortality rate grade) Aphiscraccivora ([3]; 500 mg/L test solution) | Insecticidal activity (mortality rate grade) Heliothis armigera ([1]; 125 mg/L test solution) | Insecticidal activity (mortality rate grade) Heliothis armigera ([1]; 250 mg/L test solution) | Insecticidal activity (mortality rate grade) Heliothis armigera ([1]; 500 mg/L test solution) | Insecticidal activity (mortality rate grade) Plutella xylostella ([2]; 125 mg/L test solution) | Insecticidal activity (mortality rate grade) Plutella xylostella ([2]; 250 mg/L test solution) | Insecticidal activity (mortality rate grade) Plutella xylostella ([2]; 500 mg/L test solution)
N#CCNC(=O)c1c[n+](CCCS(=O)(=O)O)ccc1C(F)(F)F [Compound I-1] | 0 to 30 | 0 to 30 | 30 to 50 | 0 to 30 | 0 to 30 | 50 to 70 | 5 (50-70%) | 7 (70˜90%) | 9 (90˜100%) |  |  |  |  |  | 
N#CCNC(=O)c1c[n+](C/C=C/S(=O)(=O)O)ccc1C(F)(F)F [Compound I-2] | 0 to 30 | 30 to 50 | 50 to 70 | 0 to 30 | 30 to 50 | 50 to 70 | 7 (70˜90%) | 9 (90˜100%) | 9 (90˜100%) |  |  |  |  |  | 
N#CCNC(=O)c1c[n+](CCCCS(=O)(=O)O)ccc1C(F)(F)F [Compound I-3] | 0 to 30 | 30 to 50 | 30 to 50 | 30 to 50 | 50 to 70 | 50 to 70 | 7 (70˜90%) | 7 (70˜90%) | 9 (90˜100%) |  |  |  |  |  | 
O=C(NCCc1ccc(OC(F)(F)F)cc1)c1c[n+](CCCS(=O)(=O)O)ccc1C(F)(F)F [Compound I-4] | 0 to 30 | 30 to 50 | 30 to 50 | 0 to 30 | 30 to 50 | 50 to 70 | 3 (30˜50%) | 5 (50-70%) | 7 (70˜90%) |  |  |  |  |  | 
O=C(NCCc1ccc(OC(F)(F)F)cc1)c1c[n+](C/C=C/S(=O)(=O)O)ccc1C(F)(F)F [Compound I-5] | 0 to 30 | 0 to 30 | 30 to 50 | 30 to 50 | 50 to 70 | 50 to 70 | 3 (30˜50%) | 3 (30˜50%) | 7 (70˜90%) |  |  |  |  |  | 
O=C(NCCc1ccc(OC(F)(F)F)cc1)c1c[n+](CCCCS(=O)(=O)O)ccc1C(F)(F)F [Compound I-6] | 0 to 30 | 0 to 30 | 30 to 50 | 0 to 30 | 30 to 50 | 50 to 70 | 5 (50-70%) | 7 (70˜90%) | 7 (70˜90%) |  |  |  |  |  | 
CC1=NNC(=O)N(N=Cc2ccc[n+](CCCS(=O)(=O)[O-])c2)C1 [IV-1] |  |  |  |  |  |  | 9 (90˜100%) | 9 (90˜100%) | 9 (90˜100%) | 0 (mortality rate of 0˜30%) | 3 (30˜50%) | 3 (30˜50%) | 3 (30˜50%) | 3 (30˜50%) | 5 (50-70%)
